Entries after “also recorded” stand apart in the source; their conditions may differ. Where two headings read alike, the source gives them in different places.
What was measured:
newborn rats [1] = assay: Fentanyl-induced respiratory depression in rat pups (postnatal day 3-4), plethysmography; format: in vivo
adult rats [2] = assay: Baseline ventilation after drug alone, plethysmography in adult rats; format: in vivo, rat; settings: for baseline minute ventilation: drug alone: A85380 0.03, Rivanicline 3, NS9283 10, PNU282987 1-15 mg/kg
[3] = test system: brainstem-spinal cord in vitro preparations; assay: Brainstem-spinal cord in vitro preparation, respiratory rhythm (C4 / XII nerve recordings); parameters: species or system rat; settings: for fR in the presence of the antagonist: antagonist 400 nM
Procedure: Brainstem-spinal cord and medullary slice preparations were obtained from neonatal Sprague-Dawley rats. The rats were anesthetized with metofane, decerebrated, and the brainstem-spinal cord (BSSC) and medullary slice dissected (Smith et al., 1990; 1991). BSSC was continuously perfused with modified Krebs solution. A single rhythmic medullary slice was cut (500-650 μm thick) and continuously perfused with bathing solution. Inspiratory activity was recorded from the fourth ventral cervical nerve roots of BSSC or XII nerve rootlets of the medullary slice using an extracellular glass electrode.
Neonatal (postnatal day 1-3) rats were anesthetized with metofane, decerebrated and the brainstem-spinal cord dissected as previously reported. The neuraxis was continuously perfused at 27°±1° C. (5 ml/min; chamber volume, 3 ml) with modified Kreb's solution that contained 128 mM NaCl, 3.0 mM KCl, 1.5 mM CaCl2, 1.0 mM MgCl2, 23.5 mM NaHCO3, 0.5 mM NaH2PO4, and 30 mM d-glucose equilibrated with 95% O2-5% CO2 (pH 7.4).
A single transverse slice containing the preBötC and more caudal reticular formation regions was then cut (700 μm thick) from brainstem-spinal cord preparations perfused with a bathing solution identical to that used for B SSC preparation with the exception that the KCl concentration was increased to 9 mM to facilitate long-term generation of stable rhythm. Recordings from the fourth ventral cervical nerve roots of brainstem-spinal cord or hypoglossal nerve roots of medullary slice preparations were amplified, rectified, low-pass filtered, and recorded to a computer, using an analog-digital converter (Axon Instruments Digidata; Molecular Devices, Sunnyvale, Calif.) and data acquisition software (Axon Instruments AxoScope).

[4] = test system: medullary slice (preBötC and XII motoneurons); parameters: species or system rat
newborn rats [5] = assay: Propofol-induced respiratory depression in newborn rats (P3); format: in vivo, rat
Procedure: In a further experiment, A85380 (0.03 mg/kg, ip) and propofol (30 mg/kg, ip) were co-administered in newborn rats in vivo (P3). In the control group, vehicle (saline) was administered with 30 mg/kg propofol (FIG. 6A). […] Without being bound by any theory, targeting of α4β2 nAChRs may be a potent means of alleviating the effects of drugs (e.g. propofol) causing respiratory depression via GABAA receptor mechanisms in vivo.

adult rats [6] = settings: rat, in vivo, sc, 0.06 mg/kg
adult rats [7] = assay: Formalin test (licking and lifting) in adult rats; format: in vivo, rat
[8] = test system: P0 rat brainstem-spinal cord preparation with C2 hemisection; assay: C2 hemisection spinal cord injury model, brainstem-spinal cord preparation, C4 recordings; settings: A85380 25 nM bath
Description: One of the primary causes of morbidity and mortality associated with spinal cord injury is loss of normal functioning of the respiratory musculature. This is caused by a reduced synaptic drive from respiratory rhythm generating centers onto respiratory spinal motoneurons. An in vitro newborn brainstem spinal cord rat model of spinal cord injury (Zimmer and Goshgarian, 2005) was used to test the efficacy of targeting α4β2 nAChRs to alleviate weak respiratory drive. […] Rectified and integrated signals were made from both C4 recordings from a P0 rat brainstem-spinal cord preparation showing the respiratory activity both contralateral (A: top traces) and ipsilateral (B: bottom traces) to one side C2 hemisection. There was a marked reduction in neural activity after the hemisection in ipsilateral nerve, but respiratory-like activity was still observed occasionally and was correlated with the respiratory activity on the contralateral nerve.

rat pups = settings: in vivo
[9] = oral administration, compared with sazetidine-A (Kong et al. 2015); cited from earlier work
adult rats [10] = settings: rat, in vivo, iv
(α4)2(β2)3 receptors = (α4)2(β2)3 receptors (Homo sapiens, UniProt P17787+P43681); settings: Zwart et al., 2008; Carbone et al., 2009; cited from earlier work
Sequence of (α4)2(β2)3 receptors (P43681 29-627 limits assumed): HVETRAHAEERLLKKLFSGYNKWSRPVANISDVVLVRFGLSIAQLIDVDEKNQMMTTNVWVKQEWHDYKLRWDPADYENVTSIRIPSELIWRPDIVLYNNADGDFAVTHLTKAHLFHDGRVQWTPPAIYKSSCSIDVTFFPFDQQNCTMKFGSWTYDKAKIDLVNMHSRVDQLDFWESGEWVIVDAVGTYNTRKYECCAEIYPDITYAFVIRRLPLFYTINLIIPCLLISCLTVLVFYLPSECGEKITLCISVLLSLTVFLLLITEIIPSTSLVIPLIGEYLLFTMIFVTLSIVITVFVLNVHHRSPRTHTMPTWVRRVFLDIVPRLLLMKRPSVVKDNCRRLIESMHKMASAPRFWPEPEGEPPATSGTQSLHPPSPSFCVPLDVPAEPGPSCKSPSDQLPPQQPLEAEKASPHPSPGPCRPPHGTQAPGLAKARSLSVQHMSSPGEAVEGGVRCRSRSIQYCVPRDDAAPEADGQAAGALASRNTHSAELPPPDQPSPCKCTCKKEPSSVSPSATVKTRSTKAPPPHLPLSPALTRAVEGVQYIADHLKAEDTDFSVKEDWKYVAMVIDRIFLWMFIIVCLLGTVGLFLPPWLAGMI
Sequence of (α4)2(β2)3 receptors (P17787 26-502): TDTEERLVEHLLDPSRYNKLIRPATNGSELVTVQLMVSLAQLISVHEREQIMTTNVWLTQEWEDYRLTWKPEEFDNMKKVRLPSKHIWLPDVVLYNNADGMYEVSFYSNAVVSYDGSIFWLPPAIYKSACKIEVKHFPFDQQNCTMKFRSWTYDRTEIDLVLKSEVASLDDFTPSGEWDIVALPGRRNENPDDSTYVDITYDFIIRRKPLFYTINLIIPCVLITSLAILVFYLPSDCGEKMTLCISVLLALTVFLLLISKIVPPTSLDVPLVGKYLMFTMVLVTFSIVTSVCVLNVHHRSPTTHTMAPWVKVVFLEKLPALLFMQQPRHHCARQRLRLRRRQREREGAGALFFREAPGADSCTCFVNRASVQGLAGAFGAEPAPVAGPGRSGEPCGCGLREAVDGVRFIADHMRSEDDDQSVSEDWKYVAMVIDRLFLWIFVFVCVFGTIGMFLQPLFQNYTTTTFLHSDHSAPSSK

(α4)3(β2)2 receptors = (α4)3(β2)2 receptors (Homo sapiens, UniProt P17787+P43681); settings: Zwart et al., 2008; Carbone et al., 2009; cited from earlier work
Sequence of (α4)3(β2)2 receptors (P43681 29-627 limits assumed): as the sequence (P43681 29-627 limits assumed) above
Sequence of (α4)3(β2)2 receptors (P17787 26-502): as the sequence (P17787 26-502) above

CN1CCCC1CCc1ccc(S)cc1 (racemic) [SIB 1553A, (±)-4-[2-((N-methyl)-2-pyrrolidinyl)ethyl]thiophenol]
SIB 1553A effects with DHβE co-administered (newborn rats [1]; DHβE 6 mg/kg co-administration with fentanyl, SIB 1553A 40 mg/kg): only partially blocked
fentanyl-induced respiratory depression with mecamylamine co-administered (newborn rats [1]; fentanyl 35 μg/kg + mecamylamine 6 mg/kg, SIB 1553A 40 mg/kg): had no effects
fentanyl-induced decrease in tidal volume (VT) (newborn rats [1]; fentanyl 35 μg/kg, SIB 1553A 40 mg/kg sc): without marked effects
fentanyl-induced decrease in respiratory rate (fR) (newborn rats [1]; fentanyl 35 μg/kg, SIB 1553A 40 mg/kg sc 7 min later): partially reversed

c1cncc(OC[C@@H]2CCN2)c1 [A85380, 3-(2(s)-azetidinylmethoxy) pyridine]
baseline minute ventilation (adult rats [2]): 97.8±3.1 % of control
baseline fR [3]: increased baseline fR
baseline respiratory amplitude [3]: without marked effects
baseline respiratory frequency [3]: increased baseline respiratory frequency
concentrations at which baseline fR is increased [3]: above 5 nM
ethanol and pentobarbital-induced respiratory depression [3]: alleviated
reversal of DAMGO-induced respiratory depression (decrease in fR and burst area) [3]: clear reversal
reversal of DAMGO-induced respiratory depression (frequency and amplitude) [3]: clear reversal
weak respiratory rhythm and XII motor output [3]: increased respiratory frequency, amplitude and bursting duration
DAMGO-induced suppression of fR [4]: alleviated
DAMGO-induced suppression of respiratory frequency and amplitude [4]: alleviated
baseline respiratory burst area [4]: decreased baseline respiratory burst area
baseline respiratory frequency [4]: increased respiratory frequency; also recorded: increased fR
loss of respiratory drive and motor output in low potassium [4]: potently reversed the loss of respiratory drive and motor output
respiratory amplitude [4]: decreased the respiratory amplitude
propofol-induced respiratory depression (newborn rats [5]; A85380 0.03 mg/kg ip co-administered with propofol 30 mg/kg ip): dramatically prevented
paw withdrawal latency to thermal stimuli, baseline (adult rats [6]): marked increase in paw withdrawal latency
nocifensive response 20-40 minutes post formalin, baseline (adult rats [7]; rat, in vivo, sc, 0.06 mg/kg): decreased nocifensive response
ipsilateral respiratory amplitude after C2 hemisection [8]: partially increased
respiratory frequency after C2 hemisection [8]: increased the respiratory frequency
significant alteration of baseline VE (rat pups): Neither

C[C@@H](NC(=O)[C@@H](N)Cc1ccc(O)cc1)C(=O)NCC(=O)N(C)[C@@H](Cc1ccccc1)C(=O)NCCO [DAMGO, [D-Ala2, NMe-Phe4, Gly-ol5]-enkephalin]
respiratory depression by DAMGO (fR and burst area) [3]: suppressed fR and burst area
effect of DAMGO on fR [4]: caused a suppression of fR
effect of DAMGO on respiratory frequency and amplitude [4]: induced suppression of respiratory frequency and amplitude

CCN1C[C@]2(COC(=O)c3ccccc3N3C(=O)C[C@H](C)C3=O)CC[C@H](OC)[C@@]34[C@@H]5C[C@H]6[C@H](OC)[C@@H]5[C@](O)(C[C@@H]6OC)[C@](O)([C@@H](OC)[C@H]23)[C@@H]14 [MLA]
fR in the presence of the antagonist [3]: fR was slower

N#Cc1cccc(-c2nc(-c3cccnc3)no2)c1 [NS9283, 3-[3-(3-Pyridinyl)-1,2,4-oxadiazol-5yl]benzonitrile]
baseline minute ventilation (adult rats [2]): 103.3±4.2 % of control
baseline respiratory amplitude ([3]; C4 discharge, A85380 25 nM, Rivanicline 0.5 μM, NS9283 15 μM): without marked effects
baseline respiratory frequency ([3]; C4 discharge, bath A85380 25 nM, Rivanicline 0.5 μM, NS9283 15 μM, PNU282987 up to 20 μM (Example 3)): increased baseline respiratory frequency
reversal of DAMGO-induced respiratory depression (frequency and amplitude) ([3]; bath after DAMGO: A85380 25 nM, Rivanicline 0.5 μM, NS9283 15 μM, PNU282987 1-20 μM (Example 3)): clear reversal

O=C(N[C@H]1CN2CCC1CC2)c1ccc(Cl)cc1 [PNU282987]
baseline minute ventilation (adult rats [2]): 102.9±4.1 % of control
baseline fR [3]: very modest increase in fR
baseline respiratory frequency [3]: very modest increase in respiratory frequency
baseline respiratory frequency [4]: had no effect
significant alteration of baseline VE (rat pups): Neither

CNCC/C=C/c1cccnc1 [Rivanicline, (E)-N-Methyl-4-(3-pyridinyl)-3-butene-1-amine]
baseline minute ventilation (adult rats [2]): 98.4±3.6 % of control
baseline respiratory amplitude [3]: without marked effects
baseline respiratory frequency [3]: increased baseline respiratory frequency
reversal of DAMGO-induced respiratory depression (frequency and amplitude) [3]: clear reversal

C(#Cc1cncc(OC[C@@H]2CCN2)c1)c1ccccc1 [VMY-2-95, 3-[(2S)-2-Azetidinylmethoxy]-5-(2-phenylethynyl)-pyridine]
significant alteration of baseline VE (rat pups): Neither
penetration of the blood-brain barrier [9]: better penetration of the blood-brain barrier

CN1[C@@H](CC(=O)c2ccccc2)CCC[C@H]1C[C@H](O)c1ccccc1 [lobeline, 2-((2R,6S)-6-((S)-2-Hydroxy-2-phenylethyl)-1-methylpiperidin-2-yl)-1-phenylethanone]
VE (adult rats [2]; lobeline 3 mg/kg iv alone): 116.2±8.7 % of control
VE (adult rats [2]; lobeline 6 mg/kg ip alone): did not affect VE
loss of righting reflex (adult rats [10]): 22.4 ± 7.3 min
nocifensive response, phase II (adult rats [7]; lobeline 3 mg/kg iv alone): tended to decrease the nocifensive response in the phase II, but the difference is not significant
nocifensive response, phase I (adult rats [7]; lobeline 3 mg/kg iv alone, formalin 30 min post lobeline): decreased nocifensive response

CN1CCCC1c1cccnc1 (centres unmarked) [nicotine]
baseline fR [3]: caused an increase of baseline fR
concentrations at which baseline fR is increased [3]: above 200 nM
reversal of DAMGO-induced respiratory depression (decrease in fR and burst area) [3]: clear reversal
significant alteration of baseline VE (rat pups): Neither

CC(C)c1cccc(C(C)C)c1O [propofol]
duration of propofol respiratory depression (newborn rats [5]; propofol 30 mg/kg ip): over 30 minutes
onset of propofol respiratory depression (newborn rats [5]; propofol 30 mg/kg ip): ≤ 5 min
respiratory depression by propofol (newborn rats [5]; propofol 30 mg/kg ip with saline): marked depression of respiratory frequency and amplitude

OCCCCC#Cc1cncc(OC[C@@H]2CCN2)c1 [sazetidine-A, 6-[5-[(2S)-2-Azetidinylmethoxy]-3-pyridinyl]-5-hexyn-1-ol]
significant alteration of baseline VE (rat pups): Neither
agonist activity ((α4)2(β2)3 receptors): full agonist activity
agonist activity ((α4)3(β2)2 receptors): nearly no agonist activity

dihydro-beta-erythroidine [DHβE]
fR in the presence of the antagonist [3]: fR was slower
reversal of A85380 (25 nM) effects by antagonist ([4]; DHβE 200 nM subsequent bath application): reversed
significant alteration of baseline VE (rat pups): Neither
